Where two headings read alike, the source gives them in different places.
Legend:
[1] = tested on: p-IKKα levels in L363 (NIK translocated multiple myeloma) cells; experiment: Effect of compounds on p-IKKα levels in L363 cells (AlphaLISA SureFire Ultra); format: cell-based, human; details: Homo sapiens, 10 μM MG132, 6 h, average of values obtained, read-out: Assay 2 IC50
Method: Effect of Compounds on p-IKKα Levels in L363 (NIK Translocated Multiple Myeloma) Cells
All compounds tested were dissolved and serially diluted in DMSO, 1:3 dilution for 11 points in an Echo compatible plate. 100% DMSO was added to columns 12 and 24 of the plate to serve as high and low signal controls. This compound plate was used to spot 20 nL of compound or DMSO into a Greiner 384 well TC plate (781080). The final DMSO concentration was 0.3% (v/v) in cell assays. Human L363 cells (ATCC) were cultured in RPMI1640 medium supplemented with GlutaMax, non-essential amino acids, sodium pyruvate and 10% fetal bovine serum. Cells were routinely maintained at densities of […]-2×10^6 cells per mL at 37° C. in a humidified 5% CO2 atmosphere incubator. Cells were passaged twice a week splitting back to obtain the low density. The day before the assay, cells were washed twice in HBSS (Hank's Balanced Salt Solution), resuspended in Dulbecco's Modified Eagle Medium (DMEM)+0.5% IgG and protease free BSA (Jackson Immuno Research Laboratories), +/−250 ng/ml recombinant human B-cell activating factor (BAFF/BLyS/TNFSF13B) and incubated overnight at 37° C. in a humidified 5% CO2 atmosphere (bulk stimulation with or without BAFF). The next day, the cell concentration was adjusted to 1×10^7 cells/ml in DMEM+/−250 ng/ml BAFF+/10 μM MG132 and plated at […] into compound or DMSO spotted 384 well TC plates. Seeded cells were incubated at 37° C. in a humidified 5% CO2 atmosphere for 6 h. After 6 h, the plates were removed from the incubator and cell lysis was achieved by the addition of 2.5 μl 5×lysis buffer containing protease and phosphatase inhibitors, followed by shaking on a plate shaker at room temperature for 15 min. At the end of this incubation, lysed cells were sequentially treated and incubated with acceptor and donor bead mixes according to the manufacturer's protocol for a 1 plate/2-incubation suspension cell assay (AlphaLISA SureFire Ultra p-IKKa (Ser 176/180) Assay Kit (Perkin Elmer). Plates were read using an EnVision Multilabel Plate Reader (Perkin Elmer). Within an experiment, a concentration response curve for each compound was run in duplicate. The signal obtained in the test wells was normalized using high signal (BAFF stimulated cells, DMSO, MG132) and low signal (unstimulated cells, DMSO) controls. To determine the IC50, a sigmoidal curve was fitted to the plot of % inhibition versus Log10 compound concentration.

[2] = biological target: recombinant human NF-kappaB-inducing kinase (NIK/MAP3K14) (Homo sapiens, UniProt Q99558); experiment: Inhibition of auto-phosphorylation of recombinant human NIK/MAP3K14 activity (AlphaScreen); format: biochemical; details: GST-tagged NIK/MAP3K14 1 nM, 5 μM ATP, 2 h at 25° C.; average of values obtained
Method: Inhibition of Auto-Phosphorylation of Recombinant Human NF-kappaB-Inducing Kinase (NIK/MAP3K14) Activity (AlphaScreen®)
NIK/MAP3K14 auto-phosphorylation activity was measured using the AlphaScreen® (αscreen) format (Perkin Elmer). All compounds tested were dissolved in dimethyl sulfoxide (DMSO) and further dilutions were made in assay buffer. The final DMSO concentration was 0.7% (v/v) in assays. The assay buffer was 50 mM Tris pH 7.5 containing 1 mM EGTA (ethylene glycol tetraacetic acid), 1 mM DTT (dithiothreitol), 0.1 mM Na3VO4, 5 mM MgCl2, and 0.01% Tween® 20. The assays were carried out in 384 well Proxiplates (Perkin Elmer). The incubations consisted of the compound, 5 μM Adenosine-5′-triphosphate (ATP), and 1 nM NIK/MAP3K14. Incubations were initiated by the addition of GST-tagged NIK/MAP3K14 enzyme, carried out for 2 h at 25° C. and terminated by addition of stop buffer containing anti-phospho-IKK Ser176/180 antibody. Protein A Acceptor and Glutathione-Donor beads were added before reading using an EnVision Multilabel Plate Reader (Perkin Elmer). The signal obtained in the wells was normalized using high (full enzyme activity, 0.7% DMSO) and low controls (no enzyme activity, 0.7% DMSO, no ATP). IC50's were determined by fitting a sigmoidal curve to % inhibition of control versus Log10 compound concentration.

[3] = L-363, 6 h, 250 ng/ml BAFF stimulated
[4] = L-363, 250 ng/ml BAFF stimulated

recombinant human NF-kappaB-inducing kinase (NIK/MAP3K14), sequence (Q99558 whole entry): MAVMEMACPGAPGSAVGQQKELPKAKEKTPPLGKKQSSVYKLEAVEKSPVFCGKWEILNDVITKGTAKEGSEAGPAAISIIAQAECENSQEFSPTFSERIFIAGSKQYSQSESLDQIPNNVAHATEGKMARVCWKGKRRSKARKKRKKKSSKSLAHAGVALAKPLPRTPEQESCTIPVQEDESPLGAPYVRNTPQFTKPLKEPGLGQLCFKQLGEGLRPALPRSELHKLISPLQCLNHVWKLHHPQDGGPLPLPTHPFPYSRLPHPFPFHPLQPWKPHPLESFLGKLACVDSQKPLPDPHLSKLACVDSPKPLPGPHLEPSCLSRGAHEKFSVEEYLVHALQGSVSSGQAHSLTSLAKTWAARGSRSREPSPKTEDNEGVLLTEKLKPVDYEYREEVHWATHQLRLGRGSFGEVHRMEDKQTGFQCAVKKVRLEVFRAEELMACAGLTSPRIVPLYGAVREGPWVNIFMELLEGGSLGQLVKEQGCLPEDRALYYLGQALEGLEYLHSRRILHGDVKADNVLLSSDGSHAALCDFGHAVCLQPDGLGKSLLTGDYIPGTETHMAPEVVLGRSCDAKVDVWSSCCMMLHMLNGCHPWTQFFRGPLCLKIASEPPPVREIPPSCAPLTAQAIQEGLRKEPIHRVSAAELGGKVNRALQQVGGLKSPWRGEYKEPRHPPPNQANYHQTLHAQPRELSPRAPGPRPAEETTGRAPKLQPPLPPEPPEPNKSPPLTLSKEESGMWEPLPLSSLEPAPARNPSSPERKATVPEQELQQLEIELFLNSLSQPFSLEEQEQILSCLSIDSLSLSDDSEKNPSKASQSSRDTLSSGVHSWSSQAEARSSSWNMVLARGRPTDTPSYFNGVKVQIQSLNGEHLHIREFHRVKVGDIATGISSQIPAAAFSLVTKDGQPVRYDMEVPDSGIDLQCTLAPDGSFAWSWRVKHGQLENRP

IC50 [1, 3] [nM]	IC50 [2] [nM]	SMILES	IC50 [1, 4] [nM]
≤ 100	≤ 100	O[C@@]1(c2cccc(-c3csc(-c4c[nH]c5ncccc45)n3)c2)CCc2scnc21 (single isomer, unassigned) [Example 32]	
> 500	≤ 100	O[C@@]1(c2cccc(-c3csc(-c4c[nH]c5ncccc45)n3)c2)C=Cc2cccnc21 (single isomer, unassigned) [Example 33]	
> 500	> 500	O[C@]1(c2cccc(-c3csc(-c4c[nH]c5ncccc45)n3)c2)C=Cc2cccnc21 (single isomer, unassigned) [Example 34]	
> 500	> 500	CC1(C)Cc2cccnc2[C@@]1(O)c1cccc(-c2csc(-c3c[nH]c4ncccc34)n2)c1 (single isomer, unassigned) [Example 35]	
> 500	≤ 100	CC1(C)Cc2cccnc2[C@]1(O)c1cccc(-c2csc(-c3c[nH]c4ncccc34)n2)c1 (single isomer, unassigned) [Example 36]	
> 500	> 500	O[C@]1(c2cccc(-c3csc(-c4c[nH]c5ncccc45)n3)c2)CCCn2ccnc21 (single isomer, unassigned) [Example 37]	
≤ 100	≤ 100	O[C@@]1(c2cccc(-c3csc(-c4c[nH]c5ncccc45)n3)c2)CCCn2ccnc21 (single isomer, unassigned) [Example 38]	
> 500	> 500	C[C@@](O)(c1cccc(-c2csc(-c3c[nH]c4ncccc34)n2)c1)c1ccccn1 (single isomer, unassigned) [Example 60]	
> 500	> 500	C[C@](O)(c1cccc(-c2csc(-c3c[nH]c4ncccc34)n2)c1)c1ccccn1 (single isomer, unassigned) [Example 61]	
> 500	> 500	C[C@](O)(c1cccc(-c2csc(-c3c[nH]c4ncccc34)n2)c1)c1nccs1 (single isomer, unassigned) [Example 64]	
> 500	≤ 100	C[C@@](O)(c1cccc(-c2csc(-c3c[nH]c4ncccc34)n2)c1)c1nccs1 (single isomer, unassigned) [Example 65]	
> 500	> 500	C[C@@](O)(c1cccc(-c2csc(-c3c[nH]c4nccnc34)n2)c1)c1ncc[nH]1 (single isomer, unassigned) [Example 77]	
> 500	> 500	C[C@](O)(c1cccc(-c2csc(-c3c[nH]c4nccnc34)n2)c1)c1ncc[nH]1 (single isomer, unassigned) [Example 78]	
> 500	> 500	Cn1ccnc1[C@@](C)(O)c1cccc(-c2csc(-c3c[nH]c4ncccc34)n2)c1 (single isomer, unassigned) [Example 79]	
> 500	> 500	C[C@@](O)(c1cccc(-c2csc(-c3c[nH]c4ncccc34)n2)c1)c1ncc[nH]1 (single isomer, unassigned) [Example 80]	
> 500	100 to 500	O[C@@H]1C[C@@](O)(c2cccc(-c3csc(-c4c[nH]c5ncccc45)n3)c2)c2ncccc21 (single isomer, unassigned) [Example 101]	
> 500	> 500	O[C@H]1C[C@](O)(c2cccc(-c3csc(-c4c[nH]c5ncccc45)n3)c2)c2ncccc21 (single isomer, unassigned) [Example 102]	
> 500	> 500	O[C@H]1C[C@@](O)(c2cccc(-c3csc(-c4c[nH]c5ncccc45)n3)c2)c2ncccc21 (single isomer, unassigned) [Example 103]	
> 500	> 500	O[C@@H]1C[C@](O)(c2cccc(-c3csc(-c4c[nH]c5ncccc45)n3)c2)c2ncccc21 (single isomer, unassigned) [Example 104]	

Continued, compound first:

SMILES	IC50 [1, 3] [nM]	IC50 [2] [nM]	IC50 [1, 4] [nM]
O[C@]1(c2cccc(-c3csc(-c4c[nH]c5ncccc45)n3)c2)CCc2cccnc21 (single isomer, unassigned) [Example 1]	> 500	> 500	
O[C@@]1(c2cccc(-c3csc(-c4c[nH]c5ncccc45)n3)c2)CCc2cccnc21 (single isomer, unassigned) [Example 2]	100 to 500	≤ 100	
CN1CC[C@@](O)(c2cccc(-c3cnc(-c4c[nH]c5ncccc45)s3)c2)C1=O (single isomer, unassigned) [Example 3]		100 to 500	> 500
CN1CC[C@](O)(c2cccc(-c3cnc(-c4c[nH]c5ncccc45)s3)c2)C1=O (single isomer, unassigned) [Example 4]		> 500	> 500
O[C@@]1(c2cccc(-c3csc(-c4c[nH]c5ncncc45)n3)c2)CCc2cccnc21 (single isomer, unassigned) [Example 5]	100 to 500	≤ 100	
O[C@]1(c2cccc(-c3csc(-c4c[nH]c5ncncc45)n3)c2)CCc2cccnc21 (single isomer, unassigned) [Example 6]	> 500	100 to 500	
O[C@@]1(c2cccc(-c3nc(-c4c[nH]c5ncccc45)cs3)c2)CCc2cccnc21 (single isomer, unassigned) [Example 22]	100 to 500	≤ 100	
O[C@]1(c2cccc(-c3nc(-c4c[nH]c5ncccc45)cs3)c2)CCc2cccnc21 (single isomer, unassigned) [Example 23]	> 500	100 to 500	
O[C@]1(c2cccc(-c3csc(-c4c[nH]c5ncccc45)n3)c2)CCc2scnc21 (single isomer, unassigned) [Example 31]	> 500	100 to 500	
CN1CC[C@](O)(c2cccc(-c3csc(-c4c[nH]c5nccnc45)n3)c2)C1=O (single isomer, unassigned) [Example 39]		> 500	> 500
CN1CC[C@@](O)(c2cccc(-c3csc(-c4c[nH]c5nccnc45)n3)c2)C1=O (single isomer, unassigned) [Example 40]		≤ 100	100 to 500
CN1CC[C@@](O)(c2cccc(-c3csc(-c4c[nH]c5ncccc45)n3)c2)C1=O (single isomer, unassigned) [Example 47]		≤ 100	100 to 500
CN1CC[C@](O)(c2cccc(-c3csc(-c4c[nH]c5ncccc45)n3)c2)C1=O (single isomer, unassigned) [Example 48]		> 500	> 500
CN1CC[C@](O)(c2cccc(-c3csc(-c4c[nH]c5ncncc45)n3)c2)C1=O (single isomer, unassigned) [Example 52]		100 to 500	> 500
O=C1Nc2cccnc2[C@]1(O)c1cccc(-c2csc(-c3c[nH]c4ncccc34)n2)c1 (single isomer, unassigned) [Example 89]		> 500	> 500
O=C1Nc2cccnc2[C@@]1(O)c1cccc(-c2csc(-c3c[nH]c4ncccc34)n2)c1 (single isomer, unassigned) [Example 90]		> 500	> 500
CN1CC[C@@](O)(c2cccc(-c3nc(-c4c[nH]c5ncccc45)sc3F)c2)C1=O (single isomer, unassigned) [Example 99]		≤ 100	> 500
